Measured values reported in article PMC7463460, “Structure and Antiparasitic Activity Relationship of Alkylphosphocholine Analogues against Leishmania donovani” (Microorganisms, 2020).
Where “and” joins values, the source holds several entries; their conditions need not be identical. Equal values may be shown once.

Experiments:
Format in all cases: cell-based, Leishmania donovani
[1] = test system: L. donovani 282/4 Milt-Sb-sensitive intracellular amastigotes; assay: Intracellular amastigote assay, Milt-resistant 282/4; details: for IC50: Leishmania donovani, read-out: Mean IC50 Value Amastigotes; for Selectivity Index (SI50): strain 282/4, Milt-Sb-sensitive, macrophage CC50 / amastigote IC50
Description: (§1) L. donovani cloned strains with different Sb susceptibility backgrounds were derived from isolates obtained from VL patients at the B.P. Koirala Institute of Health Sciences, Dharan, Nepal: MHOM/NP/02/BPK282/0cl4 (Sb sensitive, Sb-S). MHOM/NP/02/BPK087/0cl11 (Sb intermediate, Sb-I) and MHOM/NP/02/BPK275/0cl18 (Sb resistance, Sb-R [13]). In addition, Milt-resistant parasites raised against these three Sb sensitivity backgrounds and the Sb-sensitive strain (MHOM/ET/67:LV82) was also used in studies. Luciferase expressing promastigotes for the LV82 and Nepalese strains were prepared using previously published methods and the integrative construct (a gift from Dr D.F. Smith), designated pGL1313, contained pSSU-int fragments to facilitate integration into the ribosomal RNA locus of Leishmania.
(§2) In the macrophage studies, the method described in previous studies was used as follows. Briefly, bone-marrow-derived BALB/c macrophages (1–2 × 10^5) in 100 µL complete RPMI 1640 medium were added to the wells of a 96 well plate and left to adhere for 24 h at 37 °C, 5% CO₂/95% air. The medium was removed and 100 µL of the appropriate L. donovani luciferase-expressing promastigotes line (parasite: host cell ratio 1:10, 1:20 or 1:40) was added to each well, the ratio used reflected the infectivity of the strain and ensured that control data gave a bioluminescent signal within the same range. […] The variability in infectivity complicates strain to strain comparisons, but we decided to focus on achieving good infection levels in controls so that the effect of drug treatment could be determined. It is possible that intracellular macrophage parasites could have been at different developmental stages at 24 h post-infection. […] Therefore, we assumed that the effect of compounds on the amastigote stage rather than the promastigotes stage was determined in in vitro macrophage studies.
The plate was incubated for a further 24 h, the medium removed, and each well washed with PBS to eliminate non-internalized parasites, which were monitored microscopically. […]
(§3) Luciferin solution (1 µg/mL in 20 µL medium without FCS) was added to the appropriate wells of the 96-well plate at the end of the experiment and the amount of light emitted/well was measured using a luminometer (Biotek Synergy HT, relative light units) using a wavelength/bandwidth of 440/40 nm, or IVIS® imaging (Spectrum Living Image system®, total flux, photons/sec).
(§4) The effect of drug treatment on parasite survival was determined by calculating the mean suppression in the light emitted from the drug-treated experimental sample compared to the mean control value and used to calculate the IC50 using Grafit® software (version 5.0, Erithacus Software, East Grinstead, West Sussex, UK). The effect of drug alone on the viability of uninfected macrophages was determined using the same experimental protocol above, but cell viability was determined using an alamar blue colorimetric assay. At the end of the incubation period, cells’ 10 µL resazurin solution (0.02% w/v) was added to control and drug treated cells and the absorbance of samples was read at 575 and 595 nm. The effect of drug treatment on cell survival, which correlates with the magnitude of dye reduction, was expressed as percentage viability (or alamar blue reduction) and determined using the formula provided in the manufacturer’s protocol % alamar blue reduction=(εoxλ)(Aλ1)−(εoxλ1)(Aλ2)/(εredλ1)(A^′λ2)−(εredλ2)(A^′λ1)x100

[2] = test system: L. donovani 087/11 Milt-Sb-intermediate intracellular amastigotes; assay: Intracellular amastigote assay, Milt-resistant 087/11; details: for IC50: Leishmania donovani, read-out: Mean IC50 Value Amastigotes; for Cross-Resistance Index (CRI50) Amast / Selectivity Index (SI50): strain 087/11, Milt-Sb-intermediate; for Selectivity Index (SI50): macrophage CC50 / amastigote IC50
Description: as §1, §2
(§5) The plate was incubated for a further 24 h, the medium removed, and each well washed with PBS to eliminate non-internalized parasites, which were monitored microscopically. When the wells were devoid of external parasites, 100 µL of the medium alone (control) or appropriate APC compound was then added (0.01–0.197 µg/mL, n = 3/treatment). […]. All plates were incubated for 72 h at 37 °C, 5% CO₂/95% air. Wells with macrophage and with no drug or promastigotes added were used in control experiments.
as §3
as §4, with “reduction=(εoxλ)(Aλ1)−(εoxλ1)(Aλ2)/(εredλ1)(A^′λ2)−(εredλ2)(A^′λ1)x100 […]” for “reduction=(εoxλ)(Aλ1)−(εoxλ1)(Aλ2)/(εredλ1)(A^′λ2)−(εredλ2)(A^′λ1)x100”

[3] = test system: L. donovani 087/11 (Sb-intermediate) promastigotes; assay: microbe, parasite or virus in culture; details: for IC50: Leishmania donovani, read-out: Mean IC50 Promastigotes; for Promast: Amast Ratio: strain 087/11, Sb-intermediate; for Cross-Resistance Index (CRI50) Promast: strain 087/11, Sb-intermediate vs Sb-S
Description: as §1, §3
as §4, with “At the end of the incubation period, cells’ 10 µL resazurin solution (0.02% w/v) was added to control and drug treated cells and the absorbance of samples was read at 575 and 595 nm.” left out
Cross resistance (CRI50) indexes were determined as Cross selectivity indices (CRI)=mean IC50 value for the relevant drug−resistant strain i.e., Sb−I or Sb−R / mean IC50 value drug−sensitive strain Sb−S

[4] = test system: L. donovani 275/18 (Sb-resistant) intracellular amastigotes; assay: Intracellular amastigote assay, Sb-resistant strain 275/18; details: for IC50: Leishmania donovani, read-out: Mean IC50 Amastigotes; for Cross-Resistance Index (CRI50) Amast: strain 275/18, Sb-resistant vs Sb-S; for Selectivity Index (SI50): strain 275/18, Sb-resistant, macrophage CC50 / amastigote IC50
Description: as §1, §2, §5, §3
as §4, with “reduction=(εoxλ)(Aλ1)−(εoxλ1)(Aλ2)/(εredλ1)(A^′λ2)−(εredλ2)(A^′λ1)x100 […]” for “reduction=(εoxλ)(Aλ1)−(εoxλ1)(Aλ2)/(εredλ1)(A^′λ2)−(εredλ2)(A^′λ1)x100”

[5] = test system: L. donovani 087/11 (Sb-intermediate) intracellular amastigotes; assay: Intracellular amastigote assay, Sb-intermediate strain 087/11; details: for IC50: Leishmania donovani, read-out: Mean IC50 Amastigotes; for Cross-Resistance Index (CRI50) Amast: strain 087/11, Sb-intermediate vs Sb-S; for Selectivity Index (SI50): strain 087/11, Sb-intermediate, macrophage CC50 / amastigote IC50
Description: as §1, §2, §5, §3
as §4, with “reduction=(εoxλ)(Aλ1)−(εoxλ1)(Aλ2)/(εredλ1)(A^′λ2)−(εredλ2)(A^′λ1)x100 […]” for “reduction=(εoxλ)(Aλ1)−(εoxλ1)(Aλ2)/(εredλ1)(A^′λ2)−(εredλ2)(A^′λ1)x100”

[6] = test system: L. donovani 282/4 Milt-Sb-sensitive promastigotes; assay: Promastigote luciferase assay, Milt-resistant 282/4; details: for IC50: Leishmania donovani, read-out: Mean IC50 Value Promastigotes; for Promast: Amast Ratio: strain 282/4, Milt-Sb-sensitive
Description: as §1
The anti-leishmanial activity of APC against L. donovani luciferase-expressing promastigotes was determined by adding of the appropriate 100 µL parasite line (10^6 cells/mL) to the wells of a 96-well plate and adding 100 µL medium alone (controls) or 100 µL of APC compound (0.01 µg/mL–6.25 µg/mL, n = 3/treatment). The plate was incubated for 72 h at 25 °C. In combination assays, the additional compound/compounds, at a final concentration of 0.195 or 0.39 µg/mL, was added to the initial APC being tested.
as §3, §4

| SMILES | IC50 [1] | Selectivity Index (SI50) [1] | IC50 [2] | Cross-Resistance Index (CRI50) Amast [2] | Selectivity Index (SI50) [2] | IC50 [3] | Promast: Amast Ratio [3] | Cross-Resistance Index (CRI50) Promast [3] | IC50 [4] | Cross-Resistance Index (CRI50) Amast [4] | Selectivity Index (SI50) [4] | IC50 [5] | Cross-Resistance Index (CRI50) Amast [5] | Selectivity Index (SI50) [5] | IC50 [6] | Promast: Amast Ratio [6] |
| --- | --- | --- | --- | --- | --- | --- | --- | --- | --- | --- | --- | --- | --- | --- | --- | --- |
| CCCCCCCCCCCCOP(=O)([O-])OCC[N+](C)(C)C [APC12, dodecylphosphocholine] | 0.08 µg/mL and 230 nM | 442.25 | 6.17 µg/mL and 17.6 µM | 77.13 | 5.73 | 0.42 µg/mL and 1.19 µM | 2.11 | 0.76 | 0.23 µg/mL and 650 nM | 0.88 | 153.83 | 0.2 µg/mL and 570 nM | 0.77 | 176.90 | > 125 µg/mL and > 356 µM | >1562.5 |
| CCCCCCCCCCCCCCOP(=O)([O-])OCC[N+](C)(C)C [APC14, tetradecylphosphocholine] | > 1.73 µg/mL and > 4.56 µM | >23.64 | 10 µg/mL and 26.4 µM | > 5.95 | 4.08 | 0.21 µg/mL and 550 nM | 1.05 | 0.48 | 0.28 µg/mL and 740 nM | 2.33 | 146.04 | 0.19 µg/mL and 500 nM | 1.58 | 215.21 | > 125 µg/mL and > 329 µM | >72.25 |
| CCCCCCCCCCCCCCCCOP(=O)([O-])OCC[N+](C)(C)C [APC16, hexadecylphosphocholine, reference compound] | > 1.61 µg/mL and > 3.95 µM | – | 12.7 µg/mL and 31 µM | – | – | – | 5.15 | – | 0.51 µg/mL and 1.25 µM | – | – | 0.29 µg/mL and 710 nM | – | – | > 125 µg/mL and > 307 µM | >77.64 |
